Assay results from article PMC9304199, “A small molecule CFTR potentiator restores ATP‐dependent channel gating to the cystic fibrosis mutant G551D‐CFTR” (British Journal of Pharmacology, 2022).

What was measured:
G551D‐CFTR = G551D‐CFTR (Homo sapiens, UniProt P13569, G551D); assay: Ussing chamber apical Cl− current (ICl apical) in FRT epithelia expressing G551D‐CFTR; type: cell-based; set-up: assays at Charles River Laboratories (ChanTest); conditions: for EC50: G551D‐CFTR FRT epithelia, ICl apical, 27°C, read-out: EC50 (μM) (95% CI); for Emax: read-out: Maximal effect (%) (95% CI)
Chain of G551D‐CFTR (P13569 whole entry G551D): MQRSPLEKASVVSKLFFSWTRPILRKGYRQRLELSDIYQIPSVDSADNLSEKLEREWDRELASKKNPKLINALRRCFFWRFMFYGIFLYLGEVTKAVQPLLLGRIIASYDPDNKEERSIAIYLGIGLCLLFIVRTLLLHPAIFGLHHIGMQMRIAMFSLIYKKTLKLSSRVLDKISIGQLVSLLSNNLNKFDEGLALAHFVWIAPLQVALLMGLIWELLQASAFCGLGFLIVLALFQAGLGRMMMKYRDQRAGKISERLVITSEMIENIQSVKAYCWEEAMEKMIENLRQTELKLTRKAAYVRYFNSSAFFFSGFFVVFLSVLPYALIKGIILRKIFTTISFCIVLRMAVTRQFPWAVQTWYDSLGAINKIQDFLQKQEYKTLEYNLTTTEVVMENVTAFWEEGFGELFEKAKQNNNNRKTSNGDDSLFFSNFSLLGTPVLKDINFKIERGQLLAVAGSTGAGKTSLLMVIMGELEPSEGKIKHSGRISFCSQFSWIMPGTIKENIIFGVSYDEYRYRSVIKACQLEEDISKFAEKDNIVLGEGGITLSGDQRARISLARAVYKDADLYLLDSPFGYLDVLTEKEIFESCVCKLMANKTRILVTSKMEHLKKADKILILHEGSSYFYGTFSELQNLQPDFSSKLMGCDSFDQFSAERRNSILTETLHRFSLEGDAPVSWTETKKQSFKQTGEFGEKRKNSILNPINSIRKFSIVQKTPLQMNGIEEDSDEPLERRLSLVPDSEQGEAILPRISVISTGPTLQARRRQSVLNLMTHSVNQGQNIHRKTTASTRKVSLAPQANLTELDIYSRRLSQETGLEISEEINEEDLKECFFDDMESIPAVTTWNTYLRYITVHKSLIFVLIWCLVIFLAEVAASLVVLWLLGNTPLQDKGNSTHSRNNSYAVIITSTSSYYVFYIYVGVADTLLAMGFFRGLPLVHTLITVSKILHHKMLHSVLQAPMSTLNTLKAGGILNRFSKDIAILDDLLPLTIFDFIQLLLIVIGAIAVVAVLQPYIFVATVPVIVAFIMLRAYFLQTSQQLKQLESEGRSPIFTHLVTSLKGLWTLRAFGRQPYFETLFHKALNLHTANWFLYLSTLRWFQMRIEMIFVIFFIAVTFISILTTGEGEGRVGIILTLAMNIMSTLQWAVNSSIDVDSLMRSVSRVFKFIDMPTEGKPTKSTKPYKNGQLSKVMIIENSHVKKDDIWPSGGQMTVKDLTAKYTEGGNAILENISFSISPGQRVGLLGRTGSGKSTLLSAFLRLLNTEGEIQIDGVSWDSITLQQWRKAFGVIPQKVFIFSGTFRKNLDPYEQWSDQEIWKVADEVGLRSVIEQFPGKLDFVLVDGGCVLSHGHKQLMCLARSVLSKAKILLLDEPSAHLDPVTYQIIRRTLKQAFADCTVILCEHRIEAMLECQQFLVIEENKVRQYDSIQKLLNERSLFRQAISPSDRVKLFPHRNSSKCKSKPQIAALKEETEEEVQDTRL
Description: (§1) Ussing chamber studies to determine the concentration–response relationships of CFTR potentiators (Figure 1c–f) were performed at Charles River Laboratories (ChanTest) (Cleveland, OH, USA). For these studies, FRT cells were stably transfected with CFTR cDNAs with the F508del and G551D variants and the common polymorphism M470 (synthesised by System Biosciences, Palo Alto, CA, USA) using the Flp‐In™ system (Thermo Fisher Scientific, Waltham, MA, USA). The F508del‐CFTR cDNA contained the following differences from the canonical CFTR cDNA sequence (NCBI Accession Number NM_000492): del CTT (1521–1523) to delete F508; synonymous changes T > C (798), A > G (801), T > C (804) to remove a cryptic bacterial promoter; synonymous change T > C (1095); G > A (1408) to give M470 and was amplified using the primers 5′ […] 3′ and 5′ […] 3′. The G551D‐CFTR cDNA contained the following differences from the canonical CFTR cDNA sequence (NCBI Accession Number NM_000492): G > A (1652) to replace G551 with D551; synonymous changes T > C (798), A > G (801), T > C (804) to remove a cryptic bacterial promoter; synonymous change A > C (516); synonymous change T > C (1095); G > A (1408) to give M470 and was amplified using the primers 5′ […] 3′ and 5′ […] 3′. Using Kpn1 and Not1 restriction sites, the F508del‐ and G551D‐CFTR cDNAs were inserted into pcDNA5/FRT (Flp‐In™) (RRID:Addgene_31984). An FRT cell line stably expressing a flippase (Flp)‐recombinase recognition target integration site (generated by Evotec AG, Hamburg, Germany, using isogenic FRT cells from LJV Galietta) was transfected with the F508del‐ and G551D‐CFTR plasmids and the Flp recombinase plasmid pOG44 (RRID:Addgene_129419) following the manufacturer's instructions. To identify FRT cells expressing F508del‐ and G551D‐CFTR, cells were grown under hygromycin selection and individual clones picked, expanded, and verified for CFTR expression. For Ussing chamber studies to determine the plasma membrane stability of F508del‐CFTR, FRT cells expressing F508del‐CFTR from LJV Galietta were cultured and used as described previously (Meng et al., [2017]).
To grow FRT cells as polarised epithelia, 2 × 10^5 FRT cells were seeded on Snapwell filter inserts and cultured for 7–14 days before use; media were changed every 2–3 days. […]
(§2) To test the effects of CP‐628006 on CFTR Cl^− channels in the apical membrane of FRT epithelia, we permeabilized the basolateral membrane with amphotericin B (100 μM). After cancelling voltage offsets, we clamped transepithelial voltage at 0 mV and measured apical Cl^− current (ICl ^apical) continuously using a Physiologic Instruments VCC MC6/8 multichannel voltage/current clamp (Li et al., [2004]).

F508del‐CFTR [1] = target: T1, F508del‐CFTR (Homo sapiens, UniProt P13569, DEL508-508); assay: Ussing chamber apical Cl− current (ICl apical) in FRT epithelia expressing F508del‐CFTR; type: cell-based; set-up: assays at Charles River Laboratories (ChanTest); conditions: for EC50: F508del‐CFTR FRT epithelia, lumacaftor (5 μM) rescued, ICl apical, 27°C, read-out: EC50 (μM) (95% CI)
T1 sequence (P13569 with tags, fused parts or gaps DEL508-508): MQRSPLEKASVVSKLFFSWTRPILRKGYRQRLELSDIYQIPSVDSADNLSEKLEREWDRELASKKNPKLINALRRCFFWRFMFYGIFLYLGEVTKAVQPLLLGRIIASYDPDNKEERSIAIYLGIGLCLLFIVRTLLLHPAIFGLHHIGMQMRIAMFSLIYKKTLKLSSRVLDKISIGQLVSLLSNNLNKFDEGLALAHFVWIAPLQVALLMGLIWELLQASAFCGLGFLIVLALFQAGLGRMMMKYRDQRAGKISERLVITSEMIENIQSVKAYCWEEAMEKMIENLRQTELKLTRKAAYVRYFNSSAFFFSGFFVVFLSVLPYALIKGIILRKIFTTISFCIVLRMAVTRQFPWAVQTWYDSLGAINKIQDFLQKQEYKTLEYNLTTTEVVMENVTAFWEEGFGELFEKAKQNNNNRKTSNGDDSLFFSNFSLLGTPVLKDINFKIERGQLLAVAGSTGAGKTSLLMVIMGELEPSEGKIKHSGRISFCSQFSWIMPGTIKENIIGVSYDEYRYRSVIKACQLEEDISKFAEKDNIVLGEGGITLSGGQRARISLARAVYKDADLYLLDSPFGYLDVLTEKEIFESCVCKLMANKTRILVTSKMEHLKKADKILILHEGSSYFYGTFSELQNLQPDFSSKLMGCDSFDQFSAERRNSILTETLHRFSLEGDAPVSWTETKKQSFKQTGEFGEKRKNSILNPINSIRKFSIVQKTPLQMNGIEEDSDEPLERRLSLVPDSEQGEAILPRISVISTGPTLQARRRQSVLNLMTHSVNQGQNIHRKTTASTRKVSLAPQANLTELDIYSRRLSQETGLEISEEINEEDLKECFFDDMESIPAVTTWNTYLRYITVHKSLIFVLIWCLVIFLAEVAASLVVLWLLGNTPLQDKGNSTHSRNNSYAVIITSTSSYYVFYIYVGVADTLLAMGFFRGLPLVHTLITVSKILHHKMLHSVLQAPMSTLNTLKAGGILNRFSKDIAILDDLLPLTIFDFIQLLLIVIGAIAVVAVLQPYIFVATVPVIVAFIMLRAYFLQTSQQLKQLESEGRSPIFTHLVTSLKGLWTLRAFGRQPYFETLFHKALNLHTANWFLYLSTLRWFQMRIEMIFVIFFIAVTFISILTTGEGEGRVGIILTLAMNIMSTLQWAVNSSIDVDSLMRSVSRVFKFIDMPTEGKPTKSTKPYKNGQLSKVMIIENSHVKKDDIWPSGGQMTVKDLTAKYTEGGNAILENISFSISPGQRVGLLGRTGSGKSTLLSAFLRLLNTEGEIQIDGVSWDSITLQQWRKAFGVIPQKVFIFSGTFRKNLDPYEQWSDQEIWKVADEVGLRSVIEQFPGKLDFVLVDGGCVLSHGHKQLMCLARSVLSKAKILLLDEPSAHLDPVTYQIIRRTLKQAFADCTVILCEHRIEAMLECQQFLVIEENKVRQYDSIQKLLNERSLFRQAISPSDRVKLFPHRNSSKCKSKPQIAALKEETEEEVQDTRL
Description: as §1, with “An FRT cell line stably expressing a flippase (Flp)‐recombinase recognition target integration site (generated by Evotec AG, Hamburg, Germany, using isogenic FRT cells from LJV Galietta) was transfected with the F508del‐ and G551D‐CFTR plasmids and the Flp recombinase plasmid pOG44 (RRID:Addgene_129419) following the manufacturer's instructions. To identify FRT cells expressing F508del‐ and G551D‐CFTR, cells were grown under hygromycin selection and individual clones picked, expanded, and verified for CFTR expression. For Ussing chamber studies to determine the plasma membrane stability of F508del‐CFTR, FRT cells expressing F508del‐CFTR from LJV Galietta were cultured and used as described previously (Meng et al., [2017]).” left out
as §2

F508del‐CFTR [2] = target: T1, F508del‐CFTR; assay: Thermal stability (deactivation) of F508del‐CFTR in excised inside-out membrane patches at 37°C; type: biochemical; set-up: expressed in transfected cells; BHK cells from MD Amaral
Description: To investigate the effects of CFTR potentiators on the plasma membrane stability of F508del‐CFTR, we monitored its thermal stability in excised inside‐out membrane patches at 37°C (Wang et al., [2014]). Membrane patches were excised and F508del‐CFTR Cl^− channels activated at 27°C. Once channels were fully activated and potentiated, the temperature of the intracellular solution was increased to 37°C, which took 2–3 min. To quantify data, we calculated open probability (Po) and normalised Po values in 30‐s intervals over a 9‐min period (Wang et al., [2014]).

Structure (SMILES) | EC50 (G551D‐CFTR) [µM] | Emax (G551D‐CFTR) [%] | EC50 (F508del‐CFTR [1]) [µM] | increase of time to normalised Po of 50% relative to low temperature-rescued (F508del‐CFTR [2]; compound 10 μM) | delay of F508del‐CFTR deactivation (time to reach normalised Po of 50%) (F508del‐CFTR [2]; compound 10 μM, ATP 1 mM, PKA 75 nM, versus low temperature-rescued control) | Emax (F508del‐CFTR [1]; read-out: Maximal effect (%) (95% CI)) | acceleration of F508del‐CFTR deactivation (time to reach normalised Po of 50%) (F508del‐CFTR [2]; compound 1 μM, ATP 1 mM, PKA 75 nM, versus low temperature-rescued control)
Cc1ncccc1CNC(=O)c1ccc2c(c1)CC[C@H]1C[C@](O)(CCC(F)(F)F)CC[C@]21Cc1ccccc1 (racemic) [CP‐628006, rac‐(4bR,7R,8aS)‐4b‐benzyl‐7‐hydroxy‐N‐((2‐methylpyridin‐3‐yl)methyl)‐7‐(3,3,3‐trifluoropropyl)‐4b,5,6,7,8,8a,9,10‐octahydrophenanthrene‐2‐carboxamide] | 1.68 | 39 | > 0.5 | approximately 67% | ~ 90 s |  | 
CC(C)(C)c1cc(C(C)(C)C)c(NC(=O)c2c[nH]c3ccccc3c2=O)cc1O [ivacaftor, reference compound] | 0.003 | 97 | 0.002 |  |  | 103 | ~ 30 s
